The values that follow come from patent US20260376293A1, “METHODS FOR STUDYING GPR158 PHARMACOLOGY AND IDENTIFICATION OF ITS LIGANDS” (UNIVERSITY OF FLORIDA RESEARCH FOUNDATION, INCORPORATED, priority 2022, published 2026).

The target of this assay is T1, GPR158 S266A mutant (Homo sapiens, UniProt Q5T848, S266A).
T1 construct: RGS7/Gβ5 co-expressed in the GAP BRET row only
T1 sequence (Q5T848 24-1215 S266A): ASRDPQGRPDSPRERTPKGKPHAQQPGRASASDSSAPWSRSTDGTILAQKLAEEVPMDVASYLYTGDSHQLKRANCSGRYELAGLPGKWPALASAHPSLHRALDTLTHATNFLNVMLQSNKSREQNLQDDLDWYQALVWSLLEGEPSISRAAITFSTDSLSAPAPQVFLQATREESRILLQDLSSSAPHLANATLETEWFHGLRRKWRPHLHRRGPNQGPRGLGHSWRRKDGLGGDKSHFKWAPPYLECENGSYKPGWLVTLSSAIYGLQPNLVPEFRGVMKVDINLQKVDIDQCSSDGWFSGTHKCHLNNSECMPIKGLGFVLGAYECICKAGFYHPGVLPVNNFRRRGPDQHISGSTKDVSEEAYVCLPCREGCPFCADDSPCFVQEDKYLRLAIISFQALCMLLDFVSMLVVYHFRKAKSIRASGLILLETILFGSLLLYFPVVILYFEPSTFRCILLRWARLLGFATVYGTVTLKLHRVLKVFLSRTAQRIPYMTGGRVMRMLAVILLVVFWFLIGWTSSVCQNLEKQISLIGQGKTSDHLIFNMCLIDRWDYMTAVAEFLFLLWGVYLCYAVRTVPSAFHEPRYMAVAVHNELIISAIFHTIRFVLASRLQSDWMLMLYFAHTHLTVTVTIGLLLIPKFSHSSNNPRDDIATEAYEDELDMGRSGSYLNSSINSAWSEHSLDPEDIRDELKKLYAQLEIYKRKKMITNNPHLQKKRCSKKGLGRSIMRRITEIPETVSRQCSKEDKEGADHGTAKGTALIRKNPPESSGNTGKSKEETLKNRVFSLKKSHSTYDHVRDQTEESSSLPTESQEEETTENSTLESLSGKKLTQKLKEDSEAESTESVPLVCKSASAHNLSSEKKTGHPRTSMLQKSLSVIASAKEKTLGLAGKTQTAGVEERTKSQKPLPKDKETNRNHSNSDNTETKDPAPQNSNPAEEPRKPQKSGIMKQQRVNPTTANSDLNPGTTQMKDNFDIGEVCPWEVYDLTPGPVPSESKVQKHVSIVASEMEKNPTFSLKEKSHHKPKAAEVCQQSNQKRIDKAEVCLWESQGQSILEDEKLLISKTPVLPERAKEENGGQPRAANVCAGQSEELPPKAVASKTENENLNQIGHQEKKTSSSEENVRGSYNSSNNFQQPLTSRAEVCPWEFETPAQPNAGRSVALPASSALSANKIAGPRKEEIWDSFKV
The assay is described as follows: GAP BRET assay on GPR158 mutant S266A. It is filed as cell-based. From the text:
FIGS. 11A-11G. Probing Cache domain of GPR158 as a ligand binding site A) Computational docking of glycine into putative ligand binding pocket on GPR158 Cache domain. Glycine and directly interacting residues are shown as sticks. Hydrogen bonds and van der Waals interactions are shown as dotted lines. B) Diagram showing interactions in the docked model of glycine against GPR158 Cache domain. Hydrogen bonds are shown as dashed lines, van der Waals interactions are shown as intersecting semicircles, and the secondary structural context of Ser266 and Tyr269 is shown as an arc. Dagger indicates a residue implicated in glycine binding in 11A. […] Error bars are mean±s.e.m. of 3 independent experiments in triplicate. *p<0.05, **p<0.01, ***p<0.001, ****p<0.0001, ns=p>0.05, two-way ANOVA Columns with no fill (Ctrl), columns with angled-line fill (Glycine) E) Quantification of glycine inhibitory effect on kGAP normalized to the effect seen with WT receptor. […]
Cellular measurements of BRET between Venus-Gβ1γ2 and masGRK3ct-Nluc were performed to examine GAP activity of RGS protein in living cells (described in detail in Masuho et al., 2015 (40)). […] The BRET signal was determined by calculating the ratio of the light emitted by the Venus-Gβ1γ2 (535 nm with a 30 nm band path width) over the light emitted by the masGRK3ct-Nluc (475 nm with a 30 nm band path width). […]
On the technique in general: Bioluminescence resonance energy transfer reports proximity on the nanometre scale.

Consider `NCC(=O)O` [glycine], for which the “regulation of mutant activity by glycine” value is reported as “unable to be regulated”.
